This note sets out measurements from patent US20250170212A1, “COMPOSITIONS AND METHODS OF TREATING AMYOTROPHIC LATERAL SCLEROSIS (ALS) AND RELATED DISORDERS” (BIOINCEPT, LLC, priority 2022, published 2025).

“Also recorded” adds a separate entry of the source.

The test system of the experiment is transgenic SOD1^G93A mice. The experiment in a line: Survival of ALS mice (Kaplan-Meier) after mGRPs transplantation with immunomodulatory drugs. The class given is in vivo, mouse. As to conditions: n=6 per group, mGRPs into cisterna magna, drug groups all with mGRPs: sPIF 1 mg/kg day -1 to 14, Tac 1 mg/kg daily to day 56, CB 25 mg/kg days 0, 2, 4, 6. The text has this: B6.Cg-Tg (SOD1^G93A) 1Gur/J (Animalab, The Jackson Laboratory, Bar Harbor, ME, USA, RRID: IMSR JAX:004435) and SCID (Animalab, Charles River Laboratory, Wilmington, MA, USA, RRID: IMSR_JAX:001303) mice were obtained from JaxMice. SOD1^G93A animals were divided randomly into 5 groups and SCID animals were used as control.
mGRP cells were received as a gift from the Department of Radiology and Radiological Science, Johns Hopkins School of Medicine (Baltimore, MD, USA). Cells were isolated as previously described from spinal cords dissected from Luc+/PLP/GFP+ mice between E12.5 and E14 stage. […] The viability of the mGRPs was assessed with trypan blue exclusion and only suspensions with over 70% of cell viability were used for transplantation. […]
All quantifications were performed including the manual cell counts in a blinded manner. The NeuN and Ibal were counted as positive cells in the ROI (see above) as previously reported. The number of cells was determined by unbiased counting of positive cells. […] Differences between groups were analyzed using a repeated measure ANOVA model with a fixed effect for the group, of the time and a random intercept for the mouse. In a second, more explorative, approach for each group the time when the physical activity was first measured below a certain threshold was determined. […]

For MVRIKPGSANKPSDD [sPIF], the “mice survival (Kaplan-Meier)” value is recorded as “seemed to be superior compared to other immune modulatory drugs; also recorded: seems superior but did not reach statistical significance”.
